# Test results reported in patent US20260076955A1, “JOINT CAVITY DRUG ADMINISTRATION METHOD, AND USE THEREOF” (TENNOR THERAPEUTICS (SUZHOU) LIMITED, priority 2023, published 2026).
# Read-outs that look alike come from different tables or passages of the source. Marks after values point to notes of the source that are not given here.
# Columns and labels:
# [1] = test system: methicillin-resistant Staphylococcus aureus (MRSA, ATCC43300 strain); test: Rat PJI model: CFU count, scanning electron microscopy of prosthesis, H&E pathology of synovium; format: in vivo; details: for Tissue bacterial load in bone tissue / Tissue bacterial load in prosthesis / Tissue bacterial load in soft tissue: QD × 14 days, sample D 21
# From the text: In this example, rats aged about 17 weeks were used. Before the start of drug administration treatment, each rat underwent an aseptic surgery to insert an artificial prosthesis into the knee joint, followed by an intraarticular inoculation of methicillin-resistant Staphylococcus aureus (MRSA, ATCC43300 strain) at the surgical site.
# MRSA ATCC43300 strain = test: MIC (minimum inhibitory concentration) determination; format: cell-based; details: Staphylococcus aureus, read-out: MIC (minimum inhibitory concentration)
# [2] = test system: methicillin-sensitive Staphylococcus aureus (MSSA, ATCC6538 strain); test: Mouse metal implant joint infection model, colony counts from pin and femur; format: in vivo; details: for Femur Mean Log10 CFU / Log10 CFU Reduction vs. day 14 control, Femur / Log10 CFU Reduction vs. day 14 control, Pin / Pin Mean Log10 CFU: day 14
# From the text: In this example, female mice aged 8-10 weeks were used and randomly grouped. Before the start of drug administration treatment, each mouse underwent a surgery involving the placement of a metal implant into the femoral-tibial joint and an intraarticular inoculation of methicillin-sensitive Staphylococcus aureus (MSSA, ATCC6538 strain) at the surgical site. Therapeutic agents were formulated as follows: • (1) compound of formula (I): when used as a therapeutic agent for intraarticular injection (IA), the compound was dissolved in 5% dextrose in water (D5W) and formulated to the required concentrations; when used as a therapeutic agent for intraperitoneal injection (IP), the compound was dissolved in a solvent system of ethanol/NaHCO3/6% Cremophor and formulated to the required concentrations; (2) vancomycin: the drug was dissolved in sterile water for injection (WFI) and formulated to the required concentration to obtain a therapeutic agent for intraarticular injection. [table] Samples were obtained from the surgical and inoculation sites of the mice, and colony counts are performed on the agar plates. The number of colonies converted to CFU/tissue by multiplying the number of colonies by the volume of the homogenate spotted and the dilution at which the colonies were counted (5-50 colonies/spot). The resulting value was expressed as log10 CFU/tissue and used to calculate the mean and standard deviations (the results are shown in Table 1).
# Staphylococcus aureus [3] = test: Biofilm bactericidal activity MBBC90; format: cell-based; details: against Staphylococcus aureus
# Staphylococcus aureus [4] = test: MIC90; format: cell-based; details: against Staphylococcus aureus
# [5] = test system: Staphylococcus epidermidis; test: MIC90; format: cell-based; details: against Staphylococcus epidermidis
# [6] = test system: Staphylococcus epidermidis; test: Biofilm bactericidal activity MBBC90; format: cell-based; details: against Staphylococcus epidermidis
# [7] = Pharmacokinetics after single intraarticular injection in beagle dogs (plasma and synovial fluid); format: in vivo; details: both sexes, dog, single intraarticular injection 3 mg/kg; for AUC(0-t) / Cmax / Tmax / half-life: mean
# Experimental: In this example, an experiment with an animal model of male and female beagle dogs was used to evaluate the pharmacokinetic behavior after a single intraarticular injection of the compound of formula (I) in the knee. A total of 6 beagle dogs (3 males and 3 females) were used for this experiment. The experimental animals received a single intraarticular injection of 3 mg/kg of the compound of formula (I) in the left joint, and a single intraarticular injection of 0.1 mL/kg of the vehicle (injection solution of 5% dextrose in water) in the right joint. From the experimental animals, plasma samples were collected before administration (0 hour) and at 0.25 hour (15 minutes), 3 hours, 9 hours, 12 hours, 24 hours, 36 hours, 48 hours, and 72 hours after administration, and left knee synovial fluid samples were collected at 12 hours, 36 hours, and 60 hours after administration. The concentrations of the compound of formula (I) in the plasma and synovial fluid samples were determined using high-performance liquid chromatography-tandem mass spectrometry (LC-MS/MS).
# [8] = 45 mg/kg, 25 μL IA, QD × 7 days
# [9] = group T2.5, 2.5 mg/kg intraarticular
# [10] = group T5, 5 mg/kg intraarticular
# [11] = group T10, 10 mg/kg intraarticular
# [12] = 5 mg/kg, 0.2 mL IP, BID × 7 days
# [13] = 15 mg/kg, 0.2 mL IP, BID × 7 days
# [14] = 15 mg/kg, 25 μL IA, QD × 7 days
# [15] = 45 mg/kg, 0.2 mL IP, BID × 7 days
# [16] = intraarticular administration, all IA dose groups (5-45 mg/kg)
smiles,measurement,setting,value
"CN[C@H](CC(C)C)C(=O)N[C@H]1C(=O)N[C@@H](CC(N)=O)C(=O)N[C@H]2C(=O)N[C@H]3C(=O)N[C@H](C(=O)N[C@H](C(=O)O)c4cc(O)cc(O)c4-c4cc3ccc4O)[C@H](O)c3ccc(c(Cl)c3)Oc3cc2cc(c3O[C@@H]2O[C@H](CO)[C@@H](O)[C@H](O)[C@H]2O[C@H]2C[C@](C)(N)[C@H](O)[C@H](C)O2)Oc2ccc(cc2Cl)[C@H]1O [Vancomycin, reference compound]",Tissue bacterial load in bone tissue,"[1]; group Van, 44 mg/kg",11733 ± 8583 CFU
same,Tissue bacterial load in prosthesis,"[1]; group Van, 44 mg/kg",1783 ± 1136 CFU
same,Tissue bacterial load in soft tissue,"[1]; group Van, 44 mg/kg",1050 ± 1174 CFU
same,pathological H&E staining of the synovial soft tissue (FIG. 2B),"[1]; vancomycin group, 44 mg/kg",a significant reduction in inflammatory cell infiltration in the synovium
same,scanning electron microscopy observation of prosthesis (FIG. 2A),"[1]; vancomycin treatment group, 44 mg/kg",a relatively large number of bacteria still remained
same,MIC,MRSA ATCC43300 strain,0.5 µg/mL
same,Femur Mean Log10 CFU,[2]; [8],6.08 Log10 CFU
same,"Log10 CFU Reduction vs. day 14 control, Femur",[2]; [8],−0.80 Log10 CFU
same,"Log10 CFU Reduction vs. day 14 control, Pin",[2]; [8],−1.28 Log10 CFU
same,Pin Mean Log10 CFU,[2]; [8],3.49 Log10 CFU
CO[C@H]1/C=C/O[C@@]2(C)Oc3c(C)c(O)c4c(O)c(c(/C=N/N5CCC(N(C)C6([C@@H]7CCN(c8c(F)cn9c(=O)c(C(=O)O)cc(C%10CC%10)c9c8C)C7)CC6)CC5)c(O)c4c3C2=O)NC(=O)/C(C)=C\C=C\[C@H](C)[C@H](O)[C@@H](C)[C@@H](O)[C@@H](C)[C@H](OC(C)=O)[C@@H]1C [compound of formula (I)],Tissue bacterial load in bone tissue,[1]; [9],7083 ± 6280 CFU
same,Tissue bacterial load in prosthesis,[1]; [9],550 ± 207 CFU
same,Tissue bacterial load in soft tissue,[1]; [9],9717 ± 1387 CFU
same,Tissue bacterial load in bone tissue,[1]; [10],1383 ± 1068 CFU
same,Tissue bacterial load in prosthesis,[1]; [10],0 *** CFU
same,Tissue bacterial load in soft tissue,[1]; [10],5433 ± 3194 CFU
same,Tissue bacterial load in bone tissue,[1]; [11],2400 ± 1655 CFU
same,Tissue bacterial load in prosthesis,[1]; [11],0 *** CFU
same,Tissue bacterial load in soft tissue,[1]; [11],1517 ± 1011 CFU
same,pathological H&E staining of the synovial soft tissue (FIG. 2B),"[1]; high-dose group, 10 mg/kg",a significant reduction in inflammatory cell infiltration in the synovium
same,scanning electron microscopy observation of prosthesis (FIG. 2A),"[1]; high-dose group, 10 mg/kg",individual cocci embedded therein
same,scanning electron microscopy observation of prosthesis (FIG. 2A),"[1]; low-dose group, 2.5 mg/kg",the formation of a relatively large number of colonies could still be observed
same,scanning electron microscopy observation of prosthesis (FIG. 2A),"[1]; medium-dose group, 5 mg/kg",individual bacteria still present
same,biofilm bactericidal activity MBBC90,Staphylococcus aureus [3],2000 ng/mL
same,MIC90,Staphylococcus aureus [4],0.015 µg/mL
same,MIC90,[5],8 ng/mL
same,MIC,MRSA ATCC43300 strain; MRSA ATCC43300 strain,0.032 µg/mL
same,biofilm bactericidal activity MBBC90,[6],250 ng/mL
same,AUC(0-t),[7]; plasma,20.8 ± 7.15 µg·h/mL
same,Cmax,[7]; plasma,736 ± 247 ng/mL
same,Tmax,[7]; plasma,24 h
same,half-life,[7]; plasma,720 min
same,AUC(0-t),[7]; synovial fluid,1000 ± 1050 µg·h/mL
same,Cmax,[7]; synovial fluid,77400 ± 81900 ng/mL
same,Tmax,[7]; synovial fluid,12 h
same,half-life,[7]; synovial fluid,409 min
same,Kp,"[7]; synovial fluid/plasma, read-out: AUC ratio = AUC0-last in synovial fluid/AUC0-last in plasma",46.1
same,Femur Mean Log10 CFU,[2]; [12],6.51 Log10 CFU
same,"Log10 CFU Reduction vs. day 14 control, Femur",[2]; [12],−0.37 Log10 CFU
same,"Log10 CFU Reduction vs. day 14 control, Pin",[2]; [12],−0.51 Log10 CFU
same,Pin Mean Log10 CFU,[2]; [12],4.26 Log10 CFU
same,Femur Mean Log10 CFU,"[2]; 5 mg/kg, 25 μL IA, QD × 7 days",5.17 Log10 CFU
same,"Log10 CFU Reduction vs. day 14 control, Femur","[2]; 5 mg/kg, 25 μL IA, QD × 7 days",−1.71 Log10 CFU
same,"Log10 CFU Reduction vs. day 14 control, Pin","[2]; 5 mg/kg, 25 μL IA, QD × 7 days",−2.50 Log10 CFU
same,Pin Mean Log10 CFU,"[2]; 5 mg/kg, 25 μL IA, QD × 7 days",2.27 Log10 CFU
same,Femur Mean Log10 CFU,[2]; [13],5.33 Log10 CFU
same,"Log10 CFU Reduction vs. day 14 control, Femur",[2]; [13],−1.55 Log10 CFU
same,"Log10 CFU Reduction vs. day 14 control, Pin",[2]; [13],−2.25 Log10 CFU
same,Pin Mean Log10 CFU,[2]; [13],2.52 Log10 CFU
same,Femur Mean Log10 CFU,[2]; [14],3.76 Log10 CFU
same,"Log10 CFU Reduction vs. day 14 control, Femur",[2]; [14],−3.12 Log10 CFU
same,"Log10 CFU Reduction vs. day 14 control, Pin",[2]; [14],−2.54 Log10 CFU
same,Pin Mean Log10 CFU,[2]; [14],2.23 Log10 CFU
same,Femur Mean Log10 CFU,[2]; [15],3.42 Log10 CFU
same,"Log10 CFU Reduction vs. day 14 control, Femur",[2]; [15],−3.46 Log10 CFU
same,"Log10 CFU Reduction vs. day 14 control, Pin",[2]; [15],−2.72 Log10 CFU
same,Pin Mean Log10 CFU,[2]; [15],2.05 Log10 CFU
same,Femur Mean Log10 CFU,[2]; [8],3.46 Log10 CFU
same,"Log10 CFU Reduction vs. day 14 control, Femur",[2]; [8],−3.42 Log10 CFU
same,"Log10 CFU Reduction vs. day 14 control, Pin",[2]; [8],−2.72 Log10 CFU
same,Pin Mean Log10 CFU,[2]; [8],2.05 Log10 CFU
same,mean femur colony counts lower than those in the untreated control animals,[2]; [16],1.71-3.42 log10 CFU
same,mean pin colony counts lower than those in the untreated control animals,[2]; [16],2.5-2.72 logo CFU
